{"source": "patent US6563002B2", "about": "“Biscyclopropanecarboxamide compounds and pharmaceutical use thereof” (Ajinomoto Co., Inc., priority 1999, dated 2003)", "test_system": "NF-kappa B", "test": "Evaluation of inhibition of NF-kappa B: β-gal reporter in immortalized HUVEC induced with IL-1β", "format": "cell-based", "conditions": "Homo sapiens; HUVEC with NF-kappa B-driven β-gal reporter; 1 ng/ml IL-1β added 30 minutes after compound; β-gal activity determined 16 hours after; read-out: NFkB inhibiting activity IC50", "description": "Evaluation of Inhibition of NF-Kappa B:\nCells used in the tests were obtained by stably introducing E. coli β-galactosidase (β-gal) genes into human normal umbilical vein endothelial cells (HUVEC) immortalized with SV 40 large T antigen. The genes were those driven by SV40 minimum promoter fused with 6 times of the NF-kappa B binding motif derived, from immunoglobulin kappa light-chain enhancer. The cells were subcultured in RPMI medium containing 10% of FBS, and spread on 96-well plates in a concentration of 1×10^4/well the day before the initiation of the experiments. The compound of the present invention was dissolved in DMSO in a suitable concentration and fed into the 96-well plates so that the final concentration of DMSO would be not higher than 1%. 30 minutes after the addition of the compound, NF-kappa B activity was induced with 1 ng/ml of IL-1β in each well. The β-gal activity was determined 16 hours after. The β-gal activity was determined with a chemical photogenic substrate (Galacton-Light-Plus: Boehringer Mannheim) according to the protocol attached to the reagent."}
{"smiles": "CC1(C)CC1C(=O)Nc1ccc(C(O)c2ccccc2)cc1NC(=O)C1CC1(C)C", "note": "(stereo not shown) [Example 2]", "values": [{"measurement": "IC50", "result": 1, "unit": "µg/mL"}]}
